In patent US20130345199A1, “1-[M-CARBOXAMIDO(HETERO)ARYL-METHYL]-PIPERIDINE-4-CARBOXAMIDE DERIVATIVES” (Actelion Pharmaceuticals Ltd., priority 2012, published 2013) one finds EC50 data, which are given here for 43 compounds.

In the test the target is T1, CXCR7 (Homo sapiens, UniProt P25106).
T1 construct: host or cells: CHO-K1 (PathHunter CXCR7 b-arrestin cell line, stably transfected)
T1 sequence (P25106 whole entry): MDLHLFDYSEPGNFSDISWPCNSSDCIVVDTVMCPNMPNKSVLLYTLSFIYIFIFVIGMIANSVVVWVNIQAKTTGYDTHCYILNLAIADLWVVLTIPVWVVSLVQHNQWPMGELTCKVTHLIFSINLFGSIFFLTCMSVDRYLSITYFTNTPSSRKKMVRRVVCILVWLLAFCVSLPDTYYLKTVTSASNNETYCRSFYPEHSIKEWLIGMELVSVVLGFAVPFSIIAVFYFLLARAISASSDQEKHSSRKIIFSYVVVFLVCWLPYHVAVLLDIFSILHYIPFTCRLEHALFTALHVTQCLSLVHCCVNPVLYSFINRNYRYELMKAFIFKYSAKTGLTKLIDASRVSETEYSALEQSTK
The test is described as follows: PathHunter CHO-K1 CXCR7 b-arrestin assay (agonistic activity). The format is cell-based. Particulars: PathHunter CHO-K1 CXCR7 b-arrestin cell line, 90 minutes at 37° C. As for the experimental part: The […] receptor and CXCR7 agonistic activities of the compounds of formula (I) are determined in accordance with the following experimental method.
The assay is using the PathHunter™ CHO-K1 CXCR7 b-arrestin cell line from DiscoverX. The system is based on the Enzyme Fragment Complementation Technology. Two complementing fragments of the b-galactosidase enzyme are expressed within stably transfected cells. The larger portion of b-gal, termed EA for Enzyme Acceptor, is fused to the C-terminus of b-arrestin 2. The smaller fragment, termed ProLink™ tag, is fused to CXCR7 at the C-terminus. Upon activation, b-arrestin is recruited which forces the interaction of ProLink and EA, allowing complementation of the two fragments of b-gal and the formation of a functional enzyme which is capable of hydrolysing the substrate and generating a chemiluminescent signal.
CHO-K1 CXCR7 b-arrestin cells are detached from culture dishes with a cell dissociation buffer (Invitrogen, #13151-014) and collected in growing medium (F12HAMS 90% (v/v)/FCS 10% (v/v), Penicilin/streptomycin 1% (v/v)). 5000 cells per well (in 20 μl) are seeded in a 384 well plate (white-walled, clear bottom; BD Falcon #353274). The plate is incubated at 37° C./5% CO2 for 24 hours. Medium is then replaced by […] (Invitrogen #31985) for 3 to 4 hours. Test compounds are dissolved at 10 mM in DMSO and serially diluted in DMSO to 200× of the final concentration for dose response curves. Compounds are then diluted 1:33.3 in HBSS1X. 5 μl/well of HBSS1X/20 mM HEPES/0.2% BSA are added to the assay plate followed by addition of 5 μl/well of diluted compounds. CXCL12 (Peprotech #300-28A) may be used as a reference agonist. The plate is incubated for 90 minutes at 37° C. 12 μl of detection reagent (Path Hunter Detection Kit, DiscoveRx, #93-0001) is transferred to the assay plate and to the plate is incubated for 1 hour at room temperature. Luminescent signal is read in a microplate reader (FLUOstar Optima, bmg). The calculated EC50 values may fluctuate depending on the daily cellular assay performance. Fluctuations of this kind are known to those skilled in the art.
The term EC50 denotes the concentration needed to bring the measured effect to its halfway point. Lower therefore signals a more potent agent. For “1-[3-(3-Fluoro-benzoylamino)-benzyl]-piperidine-4-carboxylic acid cyclohexylamide [Example 1.103]”, the EC50 came out at 6 nM.

On to “1-{4-Chloro-3-[(2-phenyl-cyclopropanecarbonyl)-amino]-benzyl}-piperidine-4-carboxylic acid cyclohexylamide [Example 1.161]”, for which the midpoint of the response, the EC50, lay at 26 nM. Next, “5-Chloro-N-[4-chloro-3-(4-cyclopentylcarbamoyl-piperidin-1-ylmethyl)-phenyl]-nicotinamide [Example 1.227]”: 0.6 nM; `O=C(NC1CCCCC1)C1CCN(Cc2cccc(NC(=O)[C@@H]3C[C@@H]4CC[C@H]3C4)c2)CC1` (racemic) [Example 1.018, Rac-1-{3-[((1S,2R,4R)-Bicyclo[2.2.1]heptane-2-carbonyl)-amino]-benzyl}-piperidine-4-carboxylic acid cyclohexylamide]: 5 nM; `O=C(Nc1cccc(CN2CCC(C(=O)NC3CC4CCC3C4)CC2)c1)c1ccc(Cl)cc1` (racemic) [Example 2.008]: 6 nM. Next, `CC(NC(=O)C1CCN(Cc2cccc(NC(=O)c3ccc(Cl)cc3)c2)CC1)C1CCCCC1` (racemic) [Example 2.016]: 134 nM; `CC(NC(=O)C1CCN(Cc2cccc(NC(=O)c3ccc(Cl)cc3)c2)CC1)c1cccc2ccccc12` (racemic) [Example 2.018]: 349 nM.

For the compound `O=C(Nc1cccc(CN2CCC(C(=O)NC3CCCc4ccccc43)CC2)c1)c1ccc(Cl)cc1` (racemic) [Example 2.019], the EC50 stood at 40 nM. With `O=C(Nc1cccc(CN2CCC(C(=O)NC3CCc4ccccc43)CC2)c1)c1ccc(Cl)cc1` (racemic) [Example 2.020], the 50% effective concentration (EC50) was found to be 21 nM. As for `Cc1cncc(C(=O)Nc2cccc(CN3CCC(C(=O)N4CCCC4C)CC3)c2)c1` (racemic) [Example 2.050], the EC50 stood at 26 nM. As for `CC(C)C(CO)NC(=O)C1CCN(Cc2cccc(NC(=O)c3cccc(C(F)(F)F)n3)c2)CC1` (racemic) [Example 2.064], the EC50 was 87 nM. Under `Cc1cncc(C(=O)Nc2cccc(CN3CCCC(C(=O)NCC4CC4)CC3)c2)c1` (racemic) [Example 2.084] stands 304 nM. Under `CCC(C)(C)NC(=O)C1CCCN(Cc2cccc(NC(=O)c3cncc(C)c3)c2)CC1` (racemic) [Example 2.085] stands 68 nM.

As to `CC(C)(C)NC(=O)C1CCCN(Cc2cccc(NC(=O)c3cccc(C(F)(F)F)n3)c2)CC1` (racemic) [Example 2.086], the 50% effective concentration (EC50) turned out to be 10 nM.

`CCC(C)NC(=O)C1CCCN(Cc2cccc(NC(=O)c3cccc(C(F)(F)F)n3)c2)CC1` (racemic) [Example 2.087] showed a half-maximal effective concentration (EC50) of 6 nM. Under `CCC(C)(C)NC(=O)C1CCCN(Cc2cccc(NC(=O)c3cccc(C(F)(F)F)n3)c2)CC1` (racemic) [Example 2.088] stands 19 nM; under `O=C(Nc1cccc(CN2CCCC(C(=O)NCC3CC3)CC2)c1)c1cccc(C(F)(F)F)n1` (racemic) [Example 2.089], 36 nM. Next, `O=C(Nc1cccc(CN2CCC(C(=O)NC3CCCCC3)CC2)c1)c1ccc(Cl)cc1` [Example 1.001, 1-[3-(4-Chloro-benzoylamino)-benzyl]-piperidine-4-carboxylic acid cyclohexylamide]: 2 nM; `O=C(Nc1cccc(CN2CCC(C(=O)NC3CCCCC3)CC2)c1)c1cccc(C(F)(F)F)n1` [Example 1.002, 6-Trifluoromethyl-pyridine-2-carboxylic acid [3-(4-cyclohexylcarbamoyl-piperidin-1-ylmethyl)-phenyl]-amide]: 1 nM; `O=C(Nc1cccc(CN2CCC(C(=O)NC3CCCCC3)CC2)c1)c1cccnc1` [Example 1.003, N-[3-(4-Cyclohexylcarbamoyl-piperidin-1-ylmethyl)-phenyl]-nicotinamide]: 23 nM. Next, `O=C(Nc1cccc(CN2CCC(C(=O)NC3CCCC3)CC2)c1)c1ccc(Cl)cc1` [Example 2.001, 1-[3-(4-Chloro-benzoylamino)-benzyl]-piperidine-4-carboxylic acid cyclopentylamide]: 0.9 nM; `CNC(=O)C1CCN(Cc2cccc(NC(=O)c3ccc(Cl)cc3)c2)CC1` [Example 2.002]: 3 nM; `CC(C)NC(=O)C1CCN(Cc2cccc(NC(=O)c3ccc(Cl)cc3)c2)CC1` [Example 2.003]: 0.8 nM.

`CC(C)(C)NC(=O)C1CCN(Cc2cccc(NC(=O)c3ccc(Cl)cc3)c2)CC1` [Example 2.004] gave a 50% effective concentration (EC50) of 1 nM.

In the case of `COCCNC(=O)C1CCN(Cc2cccc(NC(=O)c3ccc(Cl)cc3)c2)CC1` [Example 2.005], the EC50 is 5 nM. For the compound `O=C(Nc1cccc(CN2CCC(C(=O)NC3CC3)CC2)c1)c1ccc(Cl)cc1` [Example 2.006], the EC50 worked out at 2 nM.

Compound `O=C(Nc1cccc(CN2CCC(C(=O)NC3CCC3)CC2)c1)c1ccc(Cl)cc1` [Example 2.007] showed a concentration giving a half-maximal response (EC50) of 1 nM. As for `CCN(CC)C(=O)C1CCN(Cc2cccc(NC(=O)c3ccc(Cl)cc3)c2)CC1` [Example 2.009], the EC50 came to 1 nM. On to `O=C(Nc1cccc(CN2CCC(C(=O)NCC3CCCC3)CC2)c1)c1ccc(Cl)cc1` [Example 2.010], for which a half-maximal effect (EC50) was put at 4 nM. `O=C(Nc1cccc(CN2CCC(C(=O)NC3CCC(O)CC3)CC2)c1)c1ccc(Cl)cc1` (stereo not shown) [Example 2.011]: it took 241 nM to reach a half-maximal effect (EC50). Compound `CC(C)(C)C1CCC(NC(=O)C2CCN(Cc3cccc(NC(=O)c4ccc(Cl)cc4)c3)CC2)CC1` (stereo not shown) [Example 2.012] displayed an EC50 of 1050 nM. Next, `O=C(Nc1cccc(CN2CCC(C(=O)NC3CCC(F)(F)CC3)CC2)c1)c1ccc(Cl)cc1` [Example 2.014]: 2 nM. Turning to `O=C(Nc1cccc(CN2CCC(C(=O)NCC3CCCCC3)CC2)c1)c1ccc(Cl)cc1` [Example 2.015], the EC50 came out at 46 nM. In turn, `CC(C)(NC(=O)C1CCN(Cc2cccc(NC(=O)c3ccc(Cl)cc3)c2)CC1)c1ccccc1` [Example 2.017] displayed a half-maximal effective concentration (EC50) of 219 nM. Next, `O=C(Nc1cccc(CN2CCC(C(=O)NCc3ccncc3)CC2)c1)c1ccc(Cl)cc1` [Example 2.021]: 218 nM.

As for `O=C(Nc1cccc(CN2CCC(C(=O)NCc3ccccn3)CC2)c1)c1ccc(Cl)cc1` [Example 2.022], the EC50 is 20 nM. Under `O=C(Nc1cccc(CN2CCC(C(=O)NCc3cccnc3)CC2)c1)c1ccc(Cl)cc1` [Example 2.023] stands 162 nM; under `O=C(Nc1cccc(CN2CCC(C(=O)NCc3nccs3)CC2)c1)c1ccc(Cl)cc1` [Example 2.024], 32 nM. Under `O=C(Nc1cccc(CN2CCC(C(=O)NCc3ccccc3Cl)CC2)c1)c1ccc(Cl)cc1` [Example 2.025] stands 17 nM; under `COc1ccccc1CNC(=O)C1CCN(Cc2cccc(NC(=O)c3ccc(Cl)cc3)c2)CC1` [Example 2.026], 15 nM; under `O=C(Nc1cccc(CN2CCC(C(=O)NCc3cccc(Cl)c3)CC2)c1)c1ccc(Cl)cc1` [Example 2.027], 442 nM. In the case of `COc1cccc(CNC(=O)C2CCN(Cc3cccc(NC(=O)c4ccc(Cl)cc4)c3)CC2)c1` [Example 2.028], a half-maximal effect (EC50) was put at 394 nM. The compound `O=C(Nc1cccc(CN2CCC(C(=O)NCc3ccc(Cl)cc3)CC2)c1)c1ccc(Cl)cc1` [Example 2.029] returned an EC50 of 433 nM.
